Data reported in patent US8940723B2, “Combination of a pyrroloquinoline compound and a beta-lactam antimicrobial agent, mupirocin or chlorhexidine” (Helperby Therapeutics Limited, priority 2010, dated 2015).
Converted amounts (≈) assume the structure as drawn. “Also recorded” adds a separate entry of the source. Like-named read-outs stand apart in the source and are kept apart here.

Tests used:
[1] = tested on: Staphylococcus aureus (Oxford); assay: Minimum inhibitory concentration (MIC), broth dilution method; assay type: cell-based; details: S. aureus (Oxford), Iso-Sensitest broth, overnight incubation at 37° C.
Protocol: Staphylococcus aureus (Oxford); Gram positive; Reference strain.
Iso-Sensitest Broth (Oxoid) was used for evaluation of Minimum inhibitory concentrations (MICs), susceptibility tests for antimicrobials, and efficacy of antimicrobial combinations.
The stock solution of each drug was diluted to required concentrations. 10 μl of drug from each dilution was taken and mixed with 290 μl of culture with 10^6 of bacterial cells on a 96-well plate to make the final required concentrations (μg/ml).
The plates were read at 405 nm using a 96-well plate reader Elx 800 equipped with a 405-nm filter (Bio-Tek) before and after incubation. The MIC values of the drugs were determined by comparison of the optical density reading between prior and post drug treatment.

[2] = tested on: Staphylococcus aureus (Oxford); assay: Minimum bactericidal concentration (MBC), subculture on drug-free TSA plates; assay type: cell-based; details: S. aureus (Oxford), subculture on TSA 24 to 48 hours at 37° C.
Protocol: Minimum bactericidal concentration (MBC) was determined by subculturing 100 μl of dilutions from the 96-well plate on fresh drug-free TSA agar plates and incubating further for 24 to 48 hours at 37° C.

[3] = tested on: log phase S. aureus (Oxford strain); assay: Time-kill curve suspension assay, CFU counts, log phase; assay type: cell-based, Staphylococcus aureus
Protocol: For CFU counting, the bacterial suspensions were diluted using sterile deionized water or phosphate-buffered saline (PBS, Sigma Aldrich Ltd, Poole, Dorset, UK). 100 μl of 10-fold serial dilutions of bacteria culture were plated on one third of TSA plates in triplicate and incubated 24 to 48 hours at 37° C. The number of cells presented on the plates was counted using an AcoLyte colony counter (Synbiosis) and results were expressed as Colony Forming Units/ml (CFU/ml). […] (b) mupirocin; and (c) chlorhexidine gluconate against S. aureus, in a concentration range from below to above the MIC, was assessed in a suspension assay by the time-kill curve method. […] The wells were then inoculated with 280 μl of S. aureus (Oxford strain) suspension containing 10^7 CFU/ml of inocula. Drug free controls were also included. The microtitre plates were incubated at 37° C. for 16 to 24 hours, read in a 96-well plate reader, then samples were diluted and 100 μl of each dilution was plated out on TSA plates. After 24 to 48 hours incubation CFU was counted. Each test was performed in triplicate and repeated twice. […] The wells were then inoculated with 280 μl of S. aureus (Oxford strain) suspension containing 10^7 CFU/ml of inocula. Drug free controls were also included. The microtitre plates were incubated at 37° C. for 16 to 24 hours, read in a 96-well plate reader, then samples were diluted and 100 μl of each dilution was plated out on TSA plates. After 24 to 48 hours incubation CFU was counted. […] Each test was performed in triplicate and repeated twice. […] The wells were then inoculated with 280 μl of S. aureus (Oxford strain) suspensions containing 10^7 or 10^8 and CFU/ml of inocula. Drug free controls were also included. The microtitre plates were incubated at 37° C. for 16 to 24 hours, read in a 96-well plate reader, then samples were diluted and 100 μl of each dilution was plated out on TSA plates. After 24 to 48 hours incubation CFU was counted. Each test was performed in triplicate and repeated twice. […] The mean bacterial colony count at varying time points was compared by the two-tailed t-test with unequal variance. P values of ≦0.05 indicated significant difference.

[4] = tested on: clinically latent microorganisms; assay: Screening for ability to kill clinically latent microorganisms (method of WO2000028074); assay type: cell-based
Source text: International Patent Application, Publication Number WO2000028074 describes a method of screening compounds to determine their ability to kill clinically latent microorganisms. […] This observation has necessitated the development of novel antimicrobials which may be used to kill clinically latent microorganisms.
By way of example, WO2000028074 describes a suitable method of screening compounds to determine their ability to kill clinically latent microorganisms. A typical method may include the following steps: • (1) growing a bacterial culture to stationary phase; • (2) treating the stationary phase culture with one or more antimicrobial agents at a concentration and or time sufficient to kill growing bacteria, thereby selecting a phenotypically resistant sub-population; • (3) incubating a sample of the phenotypically resistant subpopulation with one or more test compounds or agents; and • (4) assessing any antimicrobial effects against the phenotypically resistant subpopulation.
According to this method, the phenotypically resistant sub-population may be seen as representative of clinically latent bacteria which remain metabolically active in vivo and which can result in relapse or onset of disease.

[5] = Staphylococcus aureus, read-out: MIC
[6] = Staphylococcus aureus, read-out: MBC

| Structure (SMILES) | MIC [1, 5] [µg/mL] | MBC [2, 6] [µg/mL] | activity against clinically latent microorganisms [4] | other results |
| --- | --- | --- | --- | --- |
| Cc1nc2ccc(Oc3ccccc3)cc2c2c1CCN2CCc1ccccc1 [4-methyl-8-phenoxy-1-(2-phenylethyl)-2,3-dihydro-1H-pyrrolo[3,2-c]quinoline] | 8 | 16 (≈ 42.1 µM) | – | activity against log phase S. aureus ([3]; agent alone at 4 μg/ml): no activities; also recorded: no activity; kind of activity against log phase S. aureus ([3]; pyrroloquinoline alone at 10 and 8 μg/ml): bactericidal activity; CFU/ml reduced from 10^7 to ([3]; pyrroloquinoline alone at 10 and 8 μg/ml, at 72 hours): zero |
| N=C(NCCCCCCNC(=N)NC(=N)Nc1ccc(Cl)cc1)NC(=N)Nc1ccc(Cl)cc1.O=C(O)[C@H](O)[C@@H](O)[C@H](O)[C@H](O)CO.O=C(O)[C@H](O)[C@@H](O)[C@H](O)[C@H](O)CO [Chlorhexidine gluconate] | – | – | – | MIC [1]: 0.5 µg/mL; MBC [2]: 2 µg/mL |
| C/C(=C\C(=O)OCCCCCCCCC(=O)O)C[C@@H]1OC[C@H](C[C@@H]2O[C@H]2[C@@H](C)[C@H](C)O)[C@@H](O)[C@H]1O [Mupirocin] | 0.125 | 256 (≈ 511 µM) | little or no activity | kind of activity against log phase S. aureus ([3]; mupirocin alone at 40, 20 and 10 μg/ml): bacteriostatic |
| CC[C@H]1OC(=O)[C@H](C)[C@@H](O[C@H]2C[C@@](C)(OC)[C@@H](O)[C@H](C)O2)[C@H](C)[C@@H](O[C@@H]2O[C@H](C)C[C@H](N(C)C)[C@H]2O)[C@](C)(O)C[C@@H](C)CN(C)[C@H](C)[C@@H](O)[C@]1(C)O [azithromycin] | – | – | little or no activity | – |
| CC(=O)NC[C@H]1CN(c2ccc(N3CCOCC3)c(F)c2)C(=O)O1 [linezolid] | – | – | little or no activity | – |
